Source: US20100286145A1, “ISOPHTHALAMIDE DERIVATIVES INHIBITING BETA-SECRETASE ACTIVITY” (CoMentis, Inc., priority 2007, published 2010)

Tests used:
[1] = test system: Aβ production in Chinese hamster ovary cells that over-express human APP695 with the London and Swedish mutations; assay: Cellular Aβ IC50 determination (Aβ40 sandwich ELISA); format: cell-based; conditions: Cricetulus griseus; cellular Aβ production; read-out: IC50
Summary of the method: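 CHO cells overexpressing human APP695 with London and Swedish mutations, seeded at 10% confluency, treated with compounds up to about 4 μM final (0.4% DMSO). Secreted Aβ40 measured by sandwich ELISA relative to control and fitted to a 4-parameter IC50 model.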

memapsin 2 = memapsin 2 (Homo sapiens, UniProt P56817); assay: Inhibition of memapsin 2 beta-secretase activity (fluorogenic substrate FS-2); format: biochemical; conditions: memapsin 2, pH 4, 37° C., 20 minutes pre-incubation; read-out: M2Ki
Chain of memapsin 2 (P56817 46-501): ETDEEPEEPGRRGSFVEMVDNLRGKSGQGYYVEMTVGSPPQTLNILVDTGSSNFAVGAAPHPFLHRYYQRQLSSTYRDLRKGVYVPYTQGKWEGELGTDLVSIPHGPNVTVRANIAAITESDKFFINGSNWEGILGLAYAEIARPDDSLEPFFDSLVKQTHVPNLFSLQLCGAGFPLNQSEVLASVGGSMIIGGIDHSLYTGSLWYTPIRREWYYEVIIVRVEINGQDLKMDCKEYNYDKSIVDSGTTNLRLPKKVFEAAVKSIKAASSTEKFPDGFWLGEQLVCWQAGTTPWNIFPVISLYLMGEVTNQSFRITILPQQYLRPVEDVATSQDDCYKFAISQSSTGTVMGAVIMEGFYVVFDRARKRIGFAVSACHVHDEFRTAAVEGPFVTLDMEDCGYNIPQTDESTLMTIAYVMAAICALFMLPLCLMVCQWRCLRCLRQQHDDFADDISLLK
Summary of the method: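 Memapsin 2 pre-incubated 20 min with compound at pH 4, 37° C, then FS-2 substrate (MCA-SEVNLDAEFK-DNP, APP Swedish cleavage site) added. Rate of fluorescence increase compared with uninhibited controls, fitted to a tight-binding inhibition model.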

Cc1csc(CN(C)C(=O)c2cccc(C(=O)N[C@@H](Cc3ccccc3)[C@H](O)CNCc3cc(C(C)C)nc(N)n3)c2)n1 [Compound 155, N1-((2S,3R)-4-((2-amino-6-isopropylpyrimidin-4-yl)methylamino)-3-hydroxy-1-phenylbutan-2-yl)-N3-methyl-N3-((4-methylthiazol-2-yl)methyl)isophthalamide]
IC50 [1]: < 1000 nM | Ki (memapsin 2): < 300 nM

Cc1csc(CN(C)C(=O)c2cccc(C(=O)N[C@@H](Cc3ccccc3)[C@H](O)CNCc3cncc(Br)c3)c2)n1 [Compound 158, N1-((2S,3R)-4-((5-bromopyridin-3-yl)methylamino)-3-hydroxy-1-phenylbutan-2-yl)-N3-methyl-N3-((4-methylthiazol-2-yl)methyl)isophthalamide]
IC50 [1]: < 1000 nM | Ki (memapsin 2): < 300 nM

CNc1nc(CNC[C@@H](O)[C@H](Cc2ccccc2)NC(=O)c2cccc(C(=O)N(C)Cc3nc(C)cs3)c2)cc(C(C)C)n1 [Compound 161, N1-((2S,3R)-3-hydroxy-4-((6-isopropyl-2-(methylamino)pyrimidin-4-yl)methylamino)-1-phenylbutan-2-yl)-N3-methyl-N3-((4-methylthiazol-2-yl)methyl)isophthalamide]
IC50 [1]: < 1000 nM | Ki (memapsin 2): < 300 nM

Cc1csc(CN(C)C(=O)c2cc(C(=O)N[C@@H](Cc3ccccc3)[C@H](O)CNCc3cncc(C(C)C)c3)cc(N(C)C)c2)n1 [Compound 162, 5-(dimethylamino)-N1-((2S,3R)-3-hydroxy-4-((5-isopropylpyridin-3-yl)methylamino)-1-phenylbutan-2-yl)-N3-methyl-N3-((4-methylthiazol-2-yl)methyl)isophthalamide]
IC50 [1]: < 1000 nM | Ki (memapsin 2): < 300 nM

COc1cccc(C(C)(C)NC[C@@H](O)[C@H](Cc2ccccc2)NC(=O)c2cccc(C(=O)N(C)Cc3nc(C)cs3)c2)c1 [Compound 163, N1-((2S,3R)-3-hydroxy-4-(2-(3-methoxyphenyl)propan-2-ylamino)-1-phenylbutan-2-yl)-N3-methyl-N3-((4-methylthiazol-2-yl)methyl)isophthalamide]
IC50 [1]: < 1000 nM | Ki (memapsin 2): < 300 nM

Cc1csc(CN(C)C(=O)c2cccc(C(=O)N[C@@H](Cc3ccccc3)[C@H](O)CNCc3cccc(NCc4ccccc4)c3)c2)n1 [Compound 164, N1-((2S,3R)-4-(3-(benzylamino)benzylamino)-3-hydroxy-1-phenylbutan-2-yl)-N3-methyl-N3-((4-methylthiazol-2-yl)methyl)isophthalamide]
IC50 [1]: < 1000 nM | Ki (memapsin 2): < 300 nM

Cc1csc(CN(C)C(=O)c2cccc(C(=O)N[C@@H](Cc3ccccc3)[C@H](O)CNCc3cc(OS(C)(=O)=O)cc(C(C)C)c3)c2)n1 [Compound 165, 3-(((2R,3S)-2-hydroxy-3-(3-(methyl((4-methylthiazol-2-yl)methyl)carbamoyl)benzamido)-4-phenylbutylamino)methyl)-5-isopropylphenyl methanesulfonate]
IC50 [1]: < 1000 nM | Ki (memapsin 2): < 300 nM

COc1cccc(NC[C@@H](O)[C@H](Cc2ccccc2)NC(=O)c2cccc(C(=O)N(C)Cc3nc(C)cs3)c2)c1 [Compound 166, N1-((2S,3R)-3-hydroxy-4-(3-methoxyphenylamino)-1-phenylbutan-2-yl)-N3-methyl-N3-((4-methylthiazol-2-yl)methyl)isophthalamide]
IC50 [1]: > 5000 nM | Ki (memapsin 2): > 501 nM

CNc1cccc(CNC[C@@H](O)[C@H](Cc2ccccc2)NC(=O)c2cccc(C(=O)N(C)Cc3nc(C)cs3)c2)c1 [Compound 167, N1-((2S,3R)-3-hydroxy-4-(3-(methylamino)benzylamino)-1-phenylbutan-2-yl)-N3-methyl-N3-((4-methylthiazol-2-yl)methyl)isophthalamide]
IC50 [1]: < 1000 nM | Ki (memapsin 2): < 300 nM

C=C(C)c1cccc(CNC[C@@H](O)[C@H](Cc2ccccc2)NC(=O)c2cccc(C(=O)N(C)Cc3nc(C)cs3)c2)c1 [Compound 168, N1-((2S,3R)-3-hydroxy-1-phenyl-4-(3-(prop-1-en-2-yl)benzylamino)butan-2-yl)-N3-methyl-N3-((4-methylthiazol-2-yl)methyl)isophthalamide]
IC50 [1]: < 1000 nM | Ki (memapsin 2): < 300 nM

CCN(CC)c1cc(C(=O)N[C@@H](Cc2ccccc2)[C@H](O)CNCc2cccc(OC)c2)cc(C(=O)N(C)Cc2nc(C)cs2)c1 [Compound 169, 5-(diethylamino)-N1-((2S,3R)-3-hydroxy-4-(3-methoxybenzylamino)-1-phenylbutan-2-yl)-N3-methyl-N3-((4-methylthiazol-2-yl)methyl)isophthalamide]
IC50 [1]: < 1000 nM | Ki (memapsin 2): < 300 nM

Cc1csc(CN(C)C(=O)c2cccc(C(=O)N[C@@H](Cc3ccccc3)[C@H](O)CNCc3cncc(C#N)c3)c2)n1 [Compound 171, N1-((2S,3R)-4-((5-cyanopyridin-3-yl)methylamino)-3-hydroxy-1-phenylbutan-2-yl)-N3-methyl-N3-((4-methylthiazol-2-yl)methyl)isophthalamide]
IC50 [1]: 1000 to 5000 nM | Ki (memapsin 2): 301 to 500 nM

CCN(CC)c1cc(C(=O)N[C@@H](Cc2ccccc2)[C@H](O)CNCc2cncc(C(C)C)c2)cc(C(=O)N(C)Cc2nc(C)cs2)c1 [Compound 172, 5-(diethylamino)-N1-((2S,3R)-3-hydroxy-4-((5-isopropylpyridin-3-yl)methylamino)-1-phenylbutan-2-yl)-N3-methyl-N3-((4-methylthiazol-2-yl)methyl)isophthalamide]
IC50 [1]: < 1000 nM | Ki (memapsin 2): < 300 nM

Cc1csc(CN(C)C(=O)c2cccc(C(=O)N[C@@H](Cc3ccccc3)[C@H](O)CNCc3cccc(C(C)Cl)c3)c2)n1 (stereo partly drawn) [Compound 173, N1-((2S,3R)-4-(3-(1-chloroethyl)benzylamino)-3-hydroxy-1-phenylbutan-2-yl)-N3-methyl-N3-((4-methylthiazol-2-yl)methyl)isophthalamide]
IC50 [1]: < 1000 nM | Ki (memapsin 2): < 300 nM

COc1cccc(CNC[C@@H](O)[C@H](Cc2ccccc2)NC(=O)c2cc(C(=O)N(C)Cc3nc(C)cs3)cc(-c3ccccn3)c2)c1 [Compound 174, N1-((2S,3R)-3-hydroxy-4-(3-methoxybenzylamino)-1-phenylbutan-2-yl)-N3-methyl-N3-((4-methylthiazol-2-yl)methyl)-5-(pyridin-2-yl)isophthalamide]
IC50 [1]: < 1000 nM | Ki (memapsin 2): < 300 nM

Cc1csc(CN(C)C(=O)c2cccc(C(=O)N[C@@H](Cc3ccccc3)[C@H](O)CNCc3cc(CNS(C)(=O)=O)cc(C(C)C)c3)c2)n1 [Compound 175, N1-((2S,3R)-3-hydroxy-4-(3-isopropyl-5-(methylsulfonamidomethyl)benzylamino)-1-phenylbutan-2-yl)-N3-methyl-N3-((4-methylthiazol-2-yl)methyl)isophthalamide]
IC50 [1]: > 5000 nM | Ki (memapsin 2): > 501 nM

Cc1csc(CN(C)C(=O)c2cc(CF)cc(C(=O)N[C@@H](Cc3ccccc3)[C@H](O)CNCc3cncc(C(C)C)c3)c2)n1 [Compound 176, 5-(fluoromethyl)-N1-((2S,3R)-3-hydroxy-4-((5-isopropylpyridin-3-yl)methylamino)-1-phenylbutan-2-yl)-N3-methyl-N3-((4-methylthiazol-2-yl)methyl)isophthalamide]
IC50 [1]: < 1000 nM | Ki (memapsin 2): < 300 nM

Cc1csc(CN(C)C(=O)c2cc(C(=O)N[C@@H](Cc3ccccc3)[C@H](O)CNCc3cc(C(C)C)nc(N)n3)cc(-c3ncco3)c2)n1 [Compound 177, N1-((2S,3R)-4-((2-amino-6-isopropylpyrimidin-4-yl)methylamino)-3-hydroxy-1-phenylbutan-2-yl)-N3-methyl-N3-((4-methylthiazol-2-yl)methyl)-5-(oxazol-2-yl)isophthalamide]
IC50 [1]: < 1000 nM | Ki (memapsin 2): < 300 nM

Cc1csc(CN(C)C(=O)c2cc(C(=O)N[C@@H](Cc3ccccc3)[C@H](O)CNCc3cc(OS(C)(=O)=O)cc(C(C)C)c3)cc(N(C)C)c2)n1 [Compound 178, 3-(((2R,3S)-3-(3-(dimethylamino)-5-(methyl((4-methylthiazol-2-yl)methyl)carbamoyl)benzamido)-2-hydroxy-4-phenylbutylamino)methyl)-5-isopropylphenyl methanesulfonate]
IC50 [1]: < 1000 nM | Ki (memapsin 2): < 300 nM

COc1cccc(CNC[C@@H](O)[C@H](Cc2ccccc2)NC(=O)c2cc(C(=O)N(C)Cc3nc(C)cs3)cc(N3CCCC3)c2)c1 [Compound 179, N1-((2S,3R)-3-hydroxy-4-(3-methoxybenzylamino)-1-phenylbutan-2-yl)-N3-methyl-N3-((4-methylthiazol-2-yl)methyl)-5-(pyrrolidin-1-yl)isophthalamide]
IC50 [1]: < 1000 nM | Ki (memapsin 2): < 300 nM

Cc1csc(CN(C)C(=O)c2cc(C(=O)N[C@@H](Cc3ccccc3)[C@H](O)CNCc3cncc(C(C)C)c3)cc(N3CCCC3)c2)n1 [Compound 180, N1-((2S,3R)-3-hydroxy-4-((5-isopropylpyridin-3-yl)methylamino)-1-phenylbutan-2-yl)-N3-methyl-N3-((4-methylthiazol-2-yl)methyl)-5-(pyrrolidin-1-yl)isophthalamide]
IC50 [1]: < 1000 nM | Ki (memapsin 2): < 300 nM

Cc1csc(CN(C)C(=O)c2cc(C(=O)N[C@@H](Cc3ccccc3)[C@H](O)CNCc3cncc(C(C)C)c3)cc(-c3ccccn3)c2)n1 [Compound 181, N1-((2S,3R)-3-hydroxy-4-((5-isopropylpyridin-3-yl)methylamino)-1-phenylbutan-2-yl)-N3-methyl-N3-((4-methylthiazol-2-yl)methyl)-5-(pyridin-2-yl)isophthalamide]
IC50 [1]: < 1000 nM | Ki (memapsin 2): < 300 nM

Cc1csc(CN(C)C(=O)c2cccc(C(=O)N[C@@H](Cc3ccccc3)[C@H](O)CN[C@@H](C)c3cncc(C(C)C)c3)c2)n1 [Compound 182, N1-((2S,3R)-3-hydroxy-4-((S)-1-(5-isopropylpyridin-3-yl)ethylamino)-1-phenylbutan-2-yl)-N3-methyl-N3-((4-methylthiazol-2-yl)methyl)isophthalamide]
IC50 [1]: < 1000 nM | Ki (memapsin 2): < 300 nM
